Assay results from patent US10010624B2, “Pyrrolobenzodiazepine-antibody conjugates” (MEDIMMUNE LIMITED, priority 2013, dated 2018).

Tested on: K562 human chronic myeloid leukaemia cells
Test: K562 assay (MTT cytotoxicity of released compounds)
Type: cell-based
Conditions: drug incubation 1 hour or 96 hours (not specified which), MTT readout, dose reducing optical density to 50% of control
Experimental: K562 human chronic myeloid leukaemia cells were maintained in RPM1 1640 medium supplemented with 10% fetal calf serum and 2 mM glutamine at 37° C. in a humidified atmosphere containing 5% CO2 and were incubated with a specified dose of drug for 1 hour or 96 hours at 37° C. in the dark. The incubation was terminated by centrifugation (5 min, 300 g) and the cells were washed once with drug-free medium. Following the appropriate drug treatment, the cells were transferred to 96-well microtiter plates (10^4 cells per well, 8 wells per sample). Plates were then kept in the dark at 37° C. in a humidified atmosphere containing 5% CO2. The assay is based on the ability of viable cells to reduce a yellow soluble tetrazolium salt, 3-(4,5-dimethylthiazol-2-yl)-2,5-diphenyl-2H-tetrazolium bromide (MTT, Aldrich-Sigma), to an insoluble purple formazan precipitate. Following incubation of the plates for 4 days (to allow control cells to increase in number by approximately 10 fold), 20 μL of MTT solution (5 mg/mL in phosphate-buffered saline) was added to each well and the plates further incubated for 5 h. The plates were then centrifuged for 5 min at 300 g and the bulk of the medium pipetted from the cell pellet leaving 10-20 μL per well. […] The optical density was then read at a wavelength of 550 nm on a Titertek Multiscan ELISA plate reader, and a dose-response curve was constructed. […]

Work on `COc1cc2c(cc1OCCCCCOc1cc3c(cc1OC)C(=O)N1C=C(C)C[C@H]1C=N3)N=C[C@@H]1CC(C)=CN1C2=O` [Compound RelC] yielded an IC50 of 0.425 nM.
